According to ChEMBL document CHEMBL4627373, “Antitubercular Ilamycins from Marine-Derived Streptomyces atratus SCSIO ZH16 ΔilaR” (J Nat Prod, 2020):
*1 amine or outer side, *2 acyl side, *3 side chain or, on linkers, in order; H or OH if unused. Where a SMILES comes first, the peptide text is derived from it. [ ]: non-standard residue; d: D form. Trp(1-(1,1-Me2-allyl)) = C=CC(C)(C)n1cc(C[C@H](N)C(=O)O)c2ccccc21; X6 = C=C[C@](C)(CO)n1cc(C[C@H](N[*:1])C(=O)[*:2])c2ccccc21; Tyr(3-NO2) = N[C@@H](Cc1ccc(O)c([N+](=O)[O-])c1)C(=O)O; X7 = CN([C@@H](C[C@@](C)(O)C(=O)O)C(=O)[*:2])[*:1]; X2 = CN([C@@H](C[C@H](CO)C(=O)O)C(=O)[*:2])[*:1]; X4 = C[C@H](C[C@@H](C(=O)[*:2])N(C)[*:1])C(=O)O; X1 = CN([C@@H](C[C@@](C)(O)CO)C(=O)[*:2])[*:1]; X5 = O=CNc1cc(C[C@H](N[*:1])C(=O)[*:2])ccc1O; X3 = CN([C@@H](CC(CO)CO)C(=O)[*:2])[*:1]; Gly(E-crotyl) = C/C=C/C[C@H](N)C(=O)O; NMeMet(O) = CN[C@@H](CCS(C)=O)C(=O)O; NMeL = CN[C@@H](CC(C)C)C(=O)O

How the values were obtained:
[1] = system: Mycobacterium tuberculosis; experiment: Antitubercular activity against Mycobacterium tuberculosis H37Rv assessed as reduction in microbial growth by broth dilution method; format: functional
[2] = Cytotoxicity against human HUVEC12 cells assessed as reduction in cell viability after 24 hrs by CCK8 assay; format: cell-based
HepG2 = experiment: Cytotoxicity against human HepG2 cells assessed as reduction in cell viability after 24 hrs by CCK8 assay; format: functional, cell-based; settings: HepG2, 24 h
L02 = experiment: Cytotoxicity against human LO2 cells assessed as reduction in cell viability after 24 hrs by CCK8 assay; format: cell-based; settings: L02, 24 h
HeLa = experiment: Cytotoxicity against human HeLa cells assessed as reduction in cell viability after 24 hrs by CCK8 assay; format: functional, cell-based
RKO = experiment: Cytotoxicity against human RKO cells assessed as reduction in cell viability after 24 hrs by CCK8 assay; format: functional, cell-based
A549 = experiment: Cytotoxicity against human A549 cells assessed as reduction in cell viability after 24 hrs by CCK8 assay; format: functional, cell-based; settings: A549, 24 h
MCF7 = experiment: Cytotoxicity against human MCF7 cells assessed as reduction in cell viability after 24 hrs by CCK8 assay; format: functional, cell-based; settings: MCF7, 24 h

Structure (SMILES) | MIC [1] | IC50 [2] | IC50 (HepG2) | IC50 (L02) | IC50 (HeLa) | IC50 (RKO) | IC50 (A549) | IC50 (MCF7)
C=C[C@](C)(CO)n1cc(C[C@@H]2NC(=O)[C@H](C/C=C/C)NC(=O)[C@H](CC(C)C)NC(=O)[C@H](C[C@@](C)(O)C(=O)O)N(C)C(=O)[C@H](C)NC(=O)[C@H](Cc3ccc(O)c([N+](=O)[O-])c3)NC(=O)[C@H](CC(C)C)N(C)C2=O)c2ccccc21 (cyclo(A[X7]L[Gly(E-crotyl)][X6][NMeL][Tyr(3-NO2)])) | 0.24 µM | > 50 µM | > 50 µM | > 50 µM | > 50 µM | > 50 µM | > 50 µM | > 50 µM
CO[C@H]1/C=C/O[C@@]2(C)Oc3c(C)c(O)c4c(O)c(c(/C=N/N5CCN(C)CC5)c(O)c4c3C2=O)NC(=O)/C(C)=C\C=C\[C@H](C)[C@H](O)[C@@H](C)[C@@H](O)[C@@H](C)[C@H](OC(C)=O)[C@@H]1C [RIFAMPIN] | 0.3 µM | – | – | – | – | – | – | –
C=CC(C)(C)n1cc(C[C@@H]2NC(=O)[C@H](C/C=C/C)NC(=O)[C@H](CC(C)C)NC(=O)[C@H](C[C@H](CO)C(=O)O)N(C)C(=O)[C@H](C)NC(=O)[C@H](Cc3ccc(O)c([N+](=O)[O-])c3)NC(=O)[C@H](CC(C)C)N(C)C2=O)c2ccccc21 (cyclo(A[X2]L[Gly(E-crotyl)][Trp(1-(1,1-Me2-allyl))][NMeL][Tyr(3-NO2)])) | 9.5 µM | > 50 µM | > 50 µM | > 50 µM | > 50 µM | > 50 µM | > 50 µM | > 50 µM
C=C[C@](C)(CO)n1cc(C[C@@H]2NC(=O)[C@H](C/C=C/C)NC(=O)[C@H](CC(C)C)N3C(=O)[C@H](C[C@@](C)(O)[C@H]3O)N(C)C(=O)[C@H](C)NC(=O)[C@H](Cc3ccc(O)c([N+](=O)[O-])c3)NC(=O)[C@H](CC(C)C)N(C)C2=O)c2ccccc21 | 1.4 µM | > 50 µM | > 50 µM | 22 µM | 14 µM | 22 µM | > 50 µM | 27 µM
C=CC(C)(C)n1cc(C[C@@H]2NC(=O)[C@H](C/C=C/C)NC(=O)[C@H](CC(C)C)NC(=O)[C@H](C[C@@H](C)C(=O)O)N(C)C(=O)[C@H](C)NC(=O)[C@H](Cc3ccc(O)c(NC=O)c3)NC(=O)[C@H](CC(C)C)N(C)C2=O)c2ccccc21 (cyclo(A[X4]L[Gly(E-crotyl)][Trp(1-(1,1-Me2-allyl))][NMeL][X5])) | 9.6 µM | > 50 µM | > 50 µM | > 50 µM | > 50 µM | > 50 µM | > 50 µM | > 50 µM
C=CC(C)(C)n1cc(C[C@@H]2NC(=O)[C@H](C/C=C/C)NC(=O)[C@H](CC(C)C)NC(=O)[C@H](CC(CO)CO)N(C)C(=O)[C@H](C)NC(=O)[C@H](Cc3ccc(O)c([N+](=O)[O-])c3)NC(=O)[C@H](CC(C)C)N(C)C2=O)c2ccccc21 (cyclo(A[X3]L[Gly(E-crotyl)][Trp(1-(1,1-Me2-allyl))][NMeL][Tyr(3-NO2)])) | 1.2 µM | > 50 µM | > 50 µM | > 50 µM | 17 µM | 41 µM | > 50 µM | 38 µM
COc1cccc2c1C(=O)c1c(O)c3c(c(O)c1C2=O)C[C@@](O)(C(=O)CO)C[C@@H]3O[C@H]1C[C@H](N)[C@H](O)[C@H](C)O1 [DOXORUBICIN] | – | 4 µM | 0.8 µM | – | 0.5 µM | 0.3 µM | 0.7 µM | 0.4 µM
C=CC(C)(C)n1cc(C[C@@H]2NC(=O)[C@H](C/C=C/C)NC(=O)[C@H](CC(C)C)N3C(=O)[C@H](C[C@@H](CO)[C@H]3O)N(C)C(=O)[C@H](C)NC(=O)[C@H](Cc3ccc(O)c([N+](=O)[O-])c3)NC(=O)[C@H](CC(C)C)N(C)C2=O)c2ccccc21 | 1.4 µM | 12 µM | 22 µM | 16 µM | 7.2 µM | 7.3 µM | 19 µM | 5.6 µM
C=CC(C)(C)n1cc(C[C@@H]2NC(=O)[C@H](C/C=C/C)NC(=O)[C@H](CC(C)C)NC(=O)[C@H](CC[S+](C)[O-])N(C)C(=O)[C@H](C)NC(=O)[C@H](Cc3ccc(O)c([N+](=O)[O-])c3)NC(=O)[C@H](CC(C)C)N(C)C2=O)c2ccccc21 (some centres not stated) (cyclo(A[NMeMet(O)]L[Gly(E-crotyl)][Trp(1-(1,1-Me2-allyl))][NMeL][Tyr(3-NO2)])) | 1.4 µM | 28 µM | 29 µM | > 50 µM | 14 µM | 37 µM | 25 µM | 22 µM
C=CC(C)(C)n1cc(C[C@@H]2NC(=O)[C@H](C/C=C/C)NC(=O)[C@H](CC(C)C)N3C(=O)[C@H](C[C@H](C)[C@H]3OC)N(C)C(=O)[C@H](C)NC(=O)[C@H](Cc3cccc([N+](=O)[O-])c3)NC(=O)[C@H](CC(C)C)N(C)C2=O)c2ccccc21 | 1.2 µM | – | – | – | – | – | – | –
C=CC(C)(C)n1cc(C[C@@H]2NC(=O)[C@H](C/C=C/C)NC(=O)[C@H](CC(C)C)N3C(=O)[C@H](C[C@H](C)[C@H]3O)N(C)C(=O)[C@H](C)NC(=O)[C@H](Cc3ccc(O)c([N+](=O)[O-])c3)NC(=O)[C@H](CC(C)C)N(C)C2=O)c2ccccc21 | 0.0098 µM | 15 µM | 3.7 µM | 10 µM | 3.1 µM | 7.5 µM | 4.3 µM | 3.1 µM
C=CC(C)(C)n1cc(C[C@@H]2NC(=O)[C@H](C/C=C/C)NC(=O)[C@H](CC(C)C)NC(=O)[C@H](C[C@@H](C)C(=O)O)N(C)C(=O)[C@H](C)NC(=O)[C@H](Cc3ccc(O)cc3)NC(=O)[C@H](CC(C)C)N(C)C2=O)c2ccccc21 (cyclo(A[X4]L[Gly(E-crotyl)][Trp(1-(1,1-Me2-allyl))][NMeL]Y)) | 10 µM | > 50 µM | > 50 µM | > 50 µM | > 50 µM | > 50 µM | > 50 µM | > 50 µM
C=CC(C)(C)n1cc(C[C@@H]2NC(=O)[C@H](C/C=C/C)NC(=O)[C@H](CC(C)C)NC(=O)[C@H](C[C@@H](C)C(=O)O)N(C)C(=O)[C@H](C)NC(=O)[C@H](Cc3ccc(O)c([N+](=O)[O-])c3)NC(=O)[C@H](CC(C)C)N(C)C2=O)c2ccccc21 (cyclo(A[X4]L[Gly(E-crotyl)][Trp(1-(1,1-Me2-allyl))][NMeL][Tyr(3-NO2)])) | 1.2 µM | > 50 µM | > 50 µM | > 50 µM | > 50 µM | > 50 µM | > 50 µM | > 50 µM
C=C[C@](C)(CO)n1cc(C[C@@H]2NC(=O)[C@H](C/C=C/C)NC(=O)[C@H](CC(C)C)N3C(=O)[C@H](C[C@H](C)[C@H]3O)N(C)C(=O)[C@H](C)NC(=O)[C@H](Cc3ccc(O)c([N+](=O)[O-])c3)NC(=O)[C@H](CC(C)C)N(C)C2=O)c2ccccc21 | 0.0096 µM | 47 µM | > 50 µM | 31 µM | 28 µM | 19 µM | 34 µM | 33 µM
C=CC(C)(C)n1cc(C[C@@H]2NC(=O)[C@H](C/C=C/C)NC(=O)[C@H](CC(C)C)NC(=O)[C@H](C[C@@](C)(O)CO)N(C)C(=O)[C@H](C)NC(=O)[C@H](Cc3ccc(O)c([N+](=O)[O-])c3)NC(=O)[C@H](CC(C)C)N(C)C2=O)c2ccccc21 (cyclo(A[X1]L[Gly(E-crotyl)][Trp(1-(1,1-Me2-allyl))][NMeL][Tyr(3-NO2)])) | 2.3 µM | > 50 µM | > 50 µM | > 50 µM | 49 µM | > 50 µM | > 50 µM | > 50 µM
C=C[C@](C)(CO)n1cc(C[C@@H]2NC(=O)[C@H](C/C=C/C)NC(=O)[C@H](CC(C)C)NC(=O)[C@H](C[C@@H](C)C(=O)O)N(C)C(=O)[C@H](C)NC(=O)[C@H](Cc3ccc(O)c([N+](=O)[O-])c3)NC(=O)[C@H](CC(C)C)N(C)C2=O)c2ccccc21 (cyclo(A[X4]L[Gly(E-crotyl)][X6][NMeL][Tyr(3-NO2)])) | 9.5 µM | 48 µM | > 50 µM | 49 µM | 45 µM | > 50 µM | 30 µM | > 50 µM
